Experimental data published in US8623901B2, “Compounds for the treatment of CNS disorders” (Boehringer Ingelheim International GmbH, priority 2009, dated 2014).

Assays:
[1] = target: PDE1C (Homo sapiens (Human), UniProt Q14123); test: PDE1C assay (SPA, analogue to the PDE9A2 assay); assay type: biochemical; conditions: ratio PDE1C IC50 / PDE9A2 IC50
Text: The reaction can be stopped by applying the same inhibitor than the one that is outlined above (1-(2-Chlorophenyl)-6-[(2R)-3,3,3-trifluoro-2-methyl-propyl]-1,5-dihydro-4H-pyrazolo[3,4-d]pyrimidine-4-one).
(§1) IC50 can be calculated with GraphPadPrism or other suited software setting the positive control as 100 and the negative control as 0. For calculation of IC50 dilutions of the test compounds (substrates) are to be selected and tested following the aforementioned protocol.

[2] = target: human PDE9A2 (Homo sapiens (Human), UniProt O76083); test: PDE9A2 enzymatic activity assay (scintillation proximity assay); assay type: biochemical
human PDE9A2, sequence (O76083 other isoform, or with tags, fused parts or gaps): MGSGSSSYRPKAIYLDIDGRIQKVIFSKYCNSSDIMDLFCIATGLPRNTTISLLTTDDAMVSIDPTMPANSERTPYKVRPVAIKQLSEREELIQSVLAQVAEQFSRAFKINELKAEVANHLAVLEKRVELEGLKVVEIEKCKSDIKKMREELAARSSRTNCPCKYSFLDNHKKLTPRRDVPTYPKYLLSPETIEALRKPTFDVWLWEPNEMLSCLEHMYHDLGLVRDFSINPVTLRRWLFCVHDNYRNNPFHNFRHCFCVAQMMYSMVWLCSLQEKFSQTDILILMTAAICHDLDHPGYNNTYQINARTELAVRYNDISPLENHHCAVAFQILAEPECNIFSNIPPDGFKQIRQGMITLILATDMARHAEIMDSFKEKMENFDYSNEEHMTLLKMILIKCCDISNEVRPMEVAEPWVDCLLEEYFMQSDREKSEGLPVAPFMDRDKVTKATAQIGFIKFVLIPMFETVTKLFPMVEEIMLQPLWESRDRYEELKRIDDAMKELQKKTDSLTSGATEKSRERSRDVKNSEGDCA
Description: As enzyme source, lysate (PBS with 1% Triton X-100 supplemented with protease inhibitors, cell debris removed by centrifugation at 13.000 rpm for 30 min) of SF 9 cell expressing the human PDE9A2 was used. The total protein amount included in the assay varied upon infection and production efficacy of the SF9 cells and lay in the range of 0.1-100 ng.
The assays were run in 384-well format. The test reagents as well as the enzyme and the substrate were diluted in assay buffer. The assay buffer contained 50 mM Tris, 8.3 mM MgCl2, 1.7 mM EGTA, 0.1% BSA, 0.05% Tween 20; the pH of assay buffer was adjusted to 7.5.
The activity of the positive control (minus the negative control=background) is set to 100% and activity in the presence of test compound is expressed relative to these 100%.
as §1

[3] = target: Murine PDE9A (Mus musculus (Mouse), UniProt O70628); conditions: cited from earlier work
Murine PDE9A, sequence (O70628 whole entry): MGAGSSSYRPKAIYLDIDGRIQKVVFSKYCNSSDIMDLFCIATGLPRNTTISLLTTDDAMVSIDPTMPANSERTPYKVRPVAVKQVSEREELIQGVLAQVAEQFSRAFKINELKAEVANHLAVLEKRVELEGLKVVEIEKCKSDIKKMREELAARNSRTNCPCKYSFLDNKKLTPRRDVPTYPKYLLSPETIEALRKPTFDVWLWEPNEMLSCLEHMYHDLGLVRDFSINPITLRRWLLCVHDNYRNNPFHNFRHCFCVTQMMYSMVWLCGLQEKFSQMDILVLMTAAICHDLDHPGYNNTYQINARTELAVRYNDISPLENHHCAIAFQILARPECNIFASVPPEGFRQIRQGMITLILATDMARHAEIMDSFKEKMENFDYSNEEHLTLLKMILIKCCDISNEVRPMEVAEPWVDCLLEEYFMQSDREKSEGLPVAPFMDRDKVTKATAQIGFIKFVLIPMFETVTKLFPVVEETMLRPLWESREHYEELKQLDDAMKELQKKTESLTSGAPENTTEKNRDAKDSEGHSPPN

[4] = target: human PDE9A (Homo sapiens (Human), UniProt O76083); conditions: concentrations of up to 100 micromolar (μM); cited from earlier work
human PDE9A, sequence (O76083 whole entry): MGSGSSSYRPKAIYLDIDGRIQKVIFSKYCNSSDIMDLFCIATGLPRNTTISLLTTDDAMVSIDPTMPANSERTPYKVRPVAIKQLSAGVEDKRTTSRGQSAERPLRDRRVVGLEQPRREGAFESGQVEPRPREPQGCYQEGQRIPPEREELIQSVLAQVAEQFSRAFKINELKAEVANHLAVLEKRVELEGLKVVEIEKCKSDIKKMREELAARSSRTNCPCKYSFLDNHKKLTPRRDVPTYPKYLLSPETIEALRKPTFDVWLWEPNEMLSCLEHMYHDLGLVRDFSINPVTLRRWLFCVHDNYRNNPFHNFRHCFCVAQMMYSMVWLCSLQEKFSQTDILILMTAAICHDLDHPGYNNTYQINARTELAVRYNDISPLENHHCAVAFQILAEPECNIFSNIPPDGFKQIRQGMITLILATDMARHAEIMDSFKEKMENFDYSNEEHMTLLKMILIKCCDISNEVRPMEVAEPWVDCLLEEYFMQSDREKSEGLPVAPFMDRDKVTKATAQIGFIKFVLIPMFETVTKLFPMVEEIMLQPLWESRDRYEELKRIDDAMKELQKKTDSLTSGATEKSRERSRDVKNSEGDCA

Row | Compound | inhibition on the isolated enzyme [4] | other results
1 | CC(C)(C)c1cccc(-c2ccccc2Cc2nc3c(cnn3C3CCOCC3)c(=O)[nH]2)n1 [Example 259] | – | S: selectivity values [= (IC50 for PDE1C inhibition)/(IC50 for PDE9A2 inhibition)] [1]: 942; inhibition at 10 µM ([2]; PDE9A2, 10 microM test compound, read-out: I % (at 10 microM): inhibition at 10 micromolar concentration): 102%; IC50 ([2]; human PDE9A2, cGMP 20 nanomolar, read-out: IC50 values for PDE9A2 inhibition): 0.003 µM
2 | CC(C)Cn1c(=O)n(C)c(=O)c2[nH]cnc21 [IBMX] | no inhibition | inhibition of murine PDE9A ([3]; concentrations below 200 micromolar): not inhibited
3 | CC(=O)Nc1ccc(-c2c[nH]c(=O)cn2)cc1 [SKF94120] | no inhibition | –
4 | OCCN(CCO)c1nc(N2CCCCC2)c2nc(N(CCO)CCO)nc(N3CCCCC3)c2n1 [dipyridamole] | no inhibition | –
5 | COc1ccc(C2CNC(=O)C2)cc1OC1CCCC1 (stereo not shown) [rolipram] | no inhibition | –
6 | CCOC(=O)C1=C[C@]2(CC)CCCN3CCc4c(n1c1ccccc41)[C@@H]32 [vinpocetine] | no inhibition | –
7 | CCCOc1ccccc1-c1nc2nn[nH]c2c(=O)[nH]1 [zaprinast] | – | IC50 ([3]; murine PDE9A): 29 µM
